Source: patent publication US20260226048A1, “MULTI-CYCLIC IRAK AND FLT3 INHIBITING COMPOUNDS AND USES THEREOF” (CHILDREN'S HOSPITAL MEDICAL CENTER, priority 2023, published 2026)

Columns and labels:
Settings in all cases: 11-point 3-fold dilution
IRAK4 = biological target: T1, IRAK4 (Homo sapiens, UniProt Q9NWZ3); test: DiscoverX KINOMEscan competition binding assay, IRAK4; set-up: purchased Reaction Biology (RBC HotSpot)
T1 sequence (Q9NWZ3 1-460): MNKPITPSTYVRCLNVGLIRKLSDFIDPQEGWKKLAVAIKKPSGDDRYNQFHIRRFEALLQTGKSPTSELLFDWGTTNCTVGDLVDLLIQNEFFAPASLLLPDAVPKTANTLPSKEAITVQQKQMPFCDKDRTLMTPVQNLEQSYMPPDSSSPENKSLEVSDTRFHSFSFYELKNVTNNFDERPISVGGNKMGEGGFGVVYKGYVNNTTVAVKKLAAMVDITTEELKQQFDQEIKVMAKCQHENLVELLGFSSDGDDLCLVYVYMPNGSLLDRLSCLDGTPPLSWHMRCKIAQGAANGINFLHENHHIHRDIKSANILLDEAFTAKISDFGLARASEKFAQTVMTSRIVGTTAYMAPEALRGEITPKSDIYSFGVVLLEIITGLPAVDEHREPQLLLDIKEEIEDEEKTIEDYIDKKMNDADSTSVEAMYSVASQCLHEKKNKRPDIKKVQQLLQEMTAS
Source text: (§1) […]. […] As a result, the data report thermodynamic interaction affinities (Kd values), rather than IC50 values that are dependent on ATP concentrations. The assay uses a DNA-tagged version of the protein kinase, and an immobilized ligand bound to a solid support. Compounds that directly or indirectly prevent kinase binding to the immobilized ligand reduce the amount of kinase captured on the solid support, which is detected using an ultra-sensitive qPCR method. Affinity constants reported from the assay have been reported to be independent of the immobilized ligand used that is coupled to the solid support (See supplemental information in Fabian, M. A. et. al., (2005) Nat. Biotechnol. 23, 329-336; Wodicka, L. M. et. al., (2010) Chem. Biol. 17, 1241-1249.)
(§2) Kinase-tagged T7 phage strains were prepared in an E. coli host derived from the BL21 strain. E. coli were grown to log-phase and infected with T7 phage and incubated with shaking at 32° C. until lysis. The lysates were centrifuged and filtered to remove cell debris. The remaining kinases were produced in HEK-293 cells and subsequently tagged with DNA for qPCR detection. Streptavidin-coated magnetic beads were treated with biotinylated small molecule ligands for 30 minutes at room temperature to generate affinity resins for kinase assays. The liganded beads were blocked with excess biotin and washed with blocking buffer (SeaBlock (Pierce), 1% BSA, 0.05% Tween 20, 1 mM DTT) to remove unbound ligand and to reduce non-specific binding. […] Test compounds were prepared as 111× stocks in 100% DMSO. Kds were determined using an 11-point 3-fold compound dilution series with three DMSO control points. All compounds for Kd measurements are distributed by acoustic transfer (non-contact dispensing) in 100% DMSO. The compounds were then diluted directly into the assays such that the final concentration of DMSO was 0.9%. All reactions were performed in polypropylene 384-well plates. Each was a final volume of 0.02 mL. […] The kinase concentration in the eluates was measured by qPCR.
(§3) Binding constants (Kds) were calculated with a standard dose-response curve using the Hill equation. The Hill Slope was set to −1. Curves were fitted using a non-linear least square fit with the Levenberg-Marquardt algorithm.

FLT3 ITD, D835V = biological target: T2, FLT3 ITD, D835V (Homo sapiens, UniProt P36888, D835V, form not given); test: DiscoverX KINOMEscan competition binding assay, FLT3 ITD, D835V
T2 construct: fused on or other part: DNA tag for qPCR detection (kinase-tagged T7 phage, or made in HEK-293 cells and then tagged with DNA)
T2 sequence (P36888 1-993 D835V): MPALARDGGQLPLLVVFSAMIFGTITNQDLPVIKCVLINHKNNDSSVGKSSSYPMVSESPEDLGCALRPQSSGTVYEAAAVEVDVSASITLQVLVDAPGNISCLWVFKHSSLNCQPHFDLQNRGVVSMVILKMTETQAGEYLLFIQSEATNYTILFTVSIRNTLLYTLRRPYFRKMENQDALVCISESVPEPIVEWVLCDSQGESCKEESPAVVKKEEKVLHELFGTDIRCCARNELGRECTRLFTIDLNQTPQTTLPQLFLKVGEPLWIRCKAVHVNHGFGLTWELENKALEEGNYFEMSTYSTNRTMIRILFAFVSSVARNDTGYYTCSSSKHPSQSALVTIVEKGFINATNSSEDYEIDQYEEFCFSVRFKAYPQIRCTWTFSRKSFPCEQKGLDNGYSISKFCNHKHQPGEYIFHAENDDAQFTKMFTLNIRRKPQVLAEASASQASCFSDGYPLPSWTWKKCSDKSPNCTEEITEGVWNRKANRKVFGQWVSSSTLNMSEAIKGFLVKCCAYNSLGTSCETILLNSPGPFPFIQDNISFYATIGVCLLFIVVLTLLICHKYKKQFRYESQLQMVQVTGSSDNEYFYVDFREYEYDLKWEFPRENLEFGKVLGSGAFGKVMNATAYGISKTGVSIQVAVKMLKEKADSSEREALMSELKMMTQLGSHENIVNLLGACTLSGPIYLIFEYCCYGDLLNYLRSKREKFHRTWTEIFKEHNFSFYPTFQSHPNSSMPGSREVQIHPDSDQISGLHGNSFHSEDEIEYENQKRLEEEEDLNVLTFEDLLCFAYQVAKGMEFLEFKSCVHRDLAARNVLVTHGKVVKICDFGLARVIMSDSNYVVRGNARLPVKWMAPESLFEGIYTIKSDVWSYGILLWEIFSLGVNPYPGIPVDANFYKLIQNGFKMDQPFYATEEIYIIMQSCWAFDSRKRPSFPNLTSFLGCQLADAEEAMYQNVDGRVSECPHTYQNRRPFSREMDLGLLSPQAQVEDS
Source text: as §1, §2, §3

IRAK1 = biological target: T3, IRAK1 (Homo sapiens, UniProt P51617); test: DiscoverX KINOMEscan competition binding assay, IRAK1
T3 construct: purchased Reaction Biology (RBC HotSpot)
T3 sequence (P51617 whole entry): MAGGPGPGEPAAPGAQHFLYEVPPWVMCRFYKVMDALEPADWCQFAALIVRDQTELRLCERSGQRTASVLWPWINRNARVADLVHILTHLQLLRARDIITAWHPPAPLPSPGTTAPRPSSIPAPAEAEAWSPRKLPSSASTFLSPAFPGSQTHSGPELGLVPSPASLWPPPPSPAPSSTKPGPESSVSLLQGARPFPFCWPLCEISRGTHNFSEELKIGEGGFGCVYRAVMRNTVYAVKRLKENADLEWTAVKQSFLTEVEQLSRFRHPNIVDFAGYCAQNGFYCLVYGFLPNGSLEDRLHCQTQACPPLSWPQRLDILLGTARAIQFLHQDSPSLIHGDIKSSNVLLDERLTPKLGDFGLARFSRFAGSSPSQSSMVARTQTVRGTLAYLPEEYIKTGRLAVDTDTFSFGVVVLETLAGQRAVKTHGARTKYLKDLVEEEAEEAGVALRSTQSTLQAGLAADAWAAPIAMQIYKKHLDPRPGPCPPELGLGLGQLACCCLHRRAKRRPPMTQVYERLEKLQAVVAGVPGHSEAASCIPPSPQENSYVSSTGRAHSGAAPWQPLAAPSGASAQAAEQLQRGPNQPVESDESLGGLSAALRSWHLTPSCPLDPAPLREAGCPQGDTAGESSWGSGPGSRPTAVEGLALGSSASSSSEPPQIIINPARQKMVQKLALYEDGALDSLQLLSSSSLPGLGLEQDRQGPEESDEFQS
Source text: as §1, §2, §3

SMILES | Kd (IRAK4) [nM] | Kd (FLT3 ITD, D835V) [nM] | Kd (IRAK1) [nM]
COc1cc2ncc(-c3nc(N[C@H]4CNCC[C@@H]4F)ncc3F)n2nc1N1CCCS1(=O)=O [Compound 112a, 2-(3-(5-fluoro-2-(((3S,4S)-4-fluoropiperidin-3-yl)amino)pyrimidin-4-yl)-7-methoxyimidazo[1,2-b]pyridazin-6-yl)isothiazolidine 1,1-dioxide] | 0.61 | < 0.17 | 1.1
COc1cc2ncc(-c3nc(N[C@H]4CNCC[C@@H]4F)ncc3F)n2nc1C(C)(C)O [Compound 45a, 2-(3-(5-fluoro-2-(((3S,4S)-4-fluoropiperidin-3-yl)amino)pyrimidin-4-yl)-7-methoxyimidazo[1,2-b]pyridazin-6-yl)propan-2-ol] | 0.58 | 0.23 | 1.6
COc1cc2ncc(-c3nc(N[C@H]4CNCC[C@@H]4F)ncc3F)n2nc1C1COC1 [Compound 92a, 5-fluoro-N-((3S,4S)-4-fluoropiperidin-3-yl)-4-(7-methoxy-6-(oxetan-3-yl)imidazo[1,2-b]pyridazin-3-yl)pyrimidin-2-amine] | < 0.17 | < 0.17 | 0.49
FC(F)COc1cc2ncc(-c3ccnc(N[C@H]4CNCC[C@@H]4F)n3)n2nc1C1CC1 [Compound 4a, 4-(6-cyclopropyl-7-(2,2-difluoroethoxy)imidazo[1,2-b]pyridazin-3-yl)-N-((3 S,4S)-4-fluoropiperidin-3-yl)pyrimidin-2-amine] | 0.59 | < 0.17 | 7.8
CC(C)(O)c1ccc2ncc(-c3nc(N[C@H]4CNCC[C@@H]4F)ncc3F)n2c1 [Compound 46a, 2-(3-(5-fluoro-2-(((3S,4S)-4-fluoropiperidin-3-yl)amino)pyrimidin-4-yl)imidazo[1,2-a]pyridin-6-yl)propan-2-ol] | < 0.17 | < 0.17 | 0.7
COc1cc2ncc(-c3nc(N[C@H]4CNCC[C@@H]4F)ncc3F)n2nc1C1CC1 [Compound 1a, 4-(6-cyclopropyl-7-methoxyimidazo[1,2-b]pyridazin-3-yl)-5-fluoro-N-((3S,4S)-4-fluoropiperidin-3-yl)pyrimidin-2-amine] | < 0.17 | < 0.17 | < 0.17
CC(C)(O)c1cn2c(-c3nc(N[C@H]4CNCC[C@@H]4F)ncc3F)cnc2cn1 [Compound 100a, 2-(3-(5-fluoro-2-(((3S,4S)-4-fluoropiperidin-3-yl)amino)pyrimidin-4-yl)imidazo[1,2-a]pyrazin-6-yl)propan-2-ol] | 1.5 | 0.19 | 4.5
